Assay results taken from US20080118458A1, “Agent containing L-Carnitine or L-Carnitine derivatives and at least one other specific substance” (priority 2005, published 2008).

Tests used:
[1] = test system: Hepatocyte Growth Factor (HGF); experiment: Release of HGF into the medium of organotypical cell cultures (ELISA); format: cell-based; settings: 72 h; individual substance 0.01%; untreated = 100
Description: (§1) Hepatocyte Growth Factor (HGF) and Keratinocyte Growth Factor (KGF) are important growth factors which are released from the dermal papillae in order to control the proliferation of the hair keratinocytes. A potentially growth-promoting and hair-strengthening substance can be assumed from an increase in the factors released into the medium. The release of HGF and KGF can be quantified with the help of commercially available ELISA kits. For this, organotypical cell cultures are incubated over 72 h with the substance mixture and the concentration of the growth factors in the medium is determined in the described manner.

[2] = test system: Keratinocyte Growth Factor (KGF); experiment: Release of KGF into the medium of organotypical cell cultures (ELISA); format: cell-based; settings: 72 h; individual substance 0.01%; untreated = 100
Description: as §1

| SMILES | HGF mean [%] (standard deviation) [1] | KGF mean [%] (standard deviation) [2] |
| --- | --- | --- |
| NCCS(=O)(=O)O [Taurine, 2-aminoethanesulfonic acid] | 120 (21) % | 71 (7) % |
| C[N+](C)(C)C[C@H](O)CC(=O)[O-].O=C(O)C(O)C(O)C(=O)O [Carnitine tartrate, L-carnitine tartrate] | 100 (42) % | 108 (8) % |
